Measurements from patent US9034891B2, “Bicyclic heterocyclic spiro compounds” (ISRAEL INSTITUTE FOR BIOLOGICAL RESEARCH, priority 2009, dated 2015).
“And” between values parts separate entries of the source, which are not always exact repeats. Equal entries are not always repeated.

Tests used:
[1] = target: T1, rat M1 mAChR (Rattus norvegicus, UniProt P08482); assay: αAPPs secretion in PC12 cells stably transfected with rat M1 mAChR; assay type: cell-based; details: 0.1 nM to 1 μM, not observed in untransfected PC12
T1 construct: expressed in transfected cells; host or cells: rat pheochromocytoma PC12 cells
T1 sequence (P08482 whole entry): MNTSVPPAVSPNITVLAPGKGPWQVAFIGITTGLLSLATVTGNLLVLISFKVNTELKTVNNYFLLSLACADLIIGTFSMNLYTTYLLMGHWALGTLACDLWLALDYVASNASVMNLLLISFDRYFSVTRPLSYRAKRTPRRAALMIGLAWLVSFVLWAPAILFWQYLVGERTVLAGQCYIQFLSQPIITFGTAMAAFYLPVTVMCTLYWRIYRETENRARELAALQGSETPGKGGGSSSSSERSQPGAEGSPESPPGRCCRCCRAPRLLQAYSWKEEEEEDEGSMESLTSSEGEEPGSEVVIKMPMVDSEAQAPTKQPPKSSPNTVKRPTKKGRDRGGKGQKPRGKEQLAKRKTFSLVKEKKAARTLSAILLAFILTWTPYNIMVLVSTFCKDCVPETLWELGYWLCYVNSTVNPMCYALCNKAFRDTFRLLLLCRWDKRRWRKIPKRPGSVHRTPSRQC
Protocol: α-APPs Secretion studies following incubation with the tested compounds were performed as described in Haring, et al. J. Neurochem., 1998, 71:2094-103. […] A day later, cells were washed twice with serum free media, and treated with the test compound at various concentrations ranging from 0.1 nM to 100 μM. […] After 1 hour the conditioned medium was collected to cold Eppendorf tubes, which included a protease inhibitor cocktail (0.1 mM phenylmethylsulphonyl fluoride (PMSF); 5 μg/ml leupeptin; 5 μg/ml pepstatin and 5 units/ml aprotinin) for determining αAPPs release. The protein content of each sample was concentrated using Centricon tubes (Amicon, Beverly, Mass.). […] CHO cells double transfected with human APP695 and M1 mAChR APPs bands were probed using anti-amyloid beta protein (1:1000, monoclonal 6E10 antibody, MAB1560, Chemicon) and peroxidase-linked rabbit anti mouse IgG (1:5,000; Jackson Immuno Research, PA). PC12 cells stably transfected with M1 mAChR APPs bands were probed using the anti-Alzheimer precursor protein A4 (1:4,000; monoclonal 22C11 antibody, Boehringer Mannheim) and the peroxidase-linked rabbit anti mouse IgG (1:20,000; Jackson Immuno Research, PA). […] Quantitative determination of the total APPs bands was performed by Scion Image program (NIH, Bethesda, USA). […]

[2] = test system: rats; assay: Passive avoidance, MK-801-induced impairment in rats; assay type: in vivo, rat
Source text: Trihexyphenidyl is a selective M1 muscarinic antagonist that crosses the blood brain barrier and induces memory and learning impairments (Bymaster et al., J Pharmacol Exp. Ther. 267: 16-24, 1993; Roldan et al., Neurosci. Lett. 230: 93-96, 1997; Kimura et al., Brain Res. 834: 6-12, 1999). […] Naive Wistar rats were used in the experiments below. The passive avoidance (PA) task consists of a training (acquisition) phase and a retention phase. In the training procedure each rat was individually placed in the small illuminated compartment and after 60 s. of familiarization/adaptation, the door to the large compartment was opened and the latency to enter was measured (Initial Latency) Immediately following entry into the dark compartment, the door was closed and inescapable foot shock (0.6 mA for 3 s) was delivered through the grid floor. […] After the acquisition trial the rat was returned to its home cage. Retention of the passive avoidance task was measured 24 h later, by again placing the rat in the light compartment and after a 60 s adaptation interval, the door was opened and the latency to re-enter the dark compartment was measured. […] Two separate experiments were conducted. […] In both experiments the rats were divided into 2 groups. One main group was treated with trihexyphenidyl (5 mg/kg, s.c) and the second main group was treated with vehicle (DDW-1 ml/kg, s.c.), 30 min before the shock.
MK-801 is an NMDA antagonist that induces cognitive behavioral impairments in rodents. […] In the first experiment (dose-finding study of MK-801) rats were divided into 4 groups. Three groups (N=27) were treated with MK-801 (50, 80 or 100 μg/kg, s.c) and the fourth group (N=10) was treated with vehicle (saline-1 ml/kg, s.c.), 30 min before the shock. […] One group (N=80) was treated with MK-801 (80 μg/kg, s.c) and the second group (N=59) was treated with the vehicle (saline-1 ml/kg, s.c.).

[3] = target: T2, M1 mAChR (Homo sapiens, UniProt P11229); assay: αAPPs secretion in CHO cells double transfected with human APP695 and human M1 mAChR; assay type: cell-based
T2 sequence (P11229 1-460): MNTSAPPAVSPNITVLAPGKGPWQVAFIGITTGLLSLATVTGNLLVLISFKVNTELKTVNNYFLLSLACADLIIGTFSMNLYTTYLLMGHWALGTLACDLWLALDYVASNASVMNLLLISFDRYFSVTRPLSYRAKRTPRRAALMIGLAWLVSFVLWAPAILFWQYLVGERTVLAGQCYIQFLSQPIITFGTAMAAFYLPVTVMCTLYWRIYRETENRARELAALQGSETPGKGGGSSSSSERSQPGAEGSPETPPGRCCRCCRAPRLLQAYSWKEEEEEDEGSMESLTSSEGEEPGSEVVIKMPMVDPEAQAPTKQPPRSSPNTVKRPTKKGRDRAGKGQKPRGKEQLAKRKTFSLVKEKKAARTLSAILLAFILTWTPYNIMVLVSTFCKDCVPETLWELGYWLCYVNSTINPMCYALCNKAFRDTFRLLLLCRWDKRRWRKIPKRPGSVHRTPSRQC
Protocol: α-APPs Secretion studies following incubation with the tested compounds were performed as described in Haring, et al. J. Neurochem., 1998, 71:2094-103. […] A day later, cells were washed twice with serum free media, and treated with the test compound at various concentrations ranging from 0.1 nM to 100 μM. […] After 1 hour the conditioned medium was collected to cold Eppendorf tubes, which included a protease inhibitor cocktail (0.1 mM phenylmethylsulphonyl fluoride (PMSF); 5 μg/ml leupeptin; 5 μg/ml pepstatin and 5 units/ml aprotinin) for determining αAPPs release. The protein content of each sample was concentrated using Centricon tubes (Amicon, Beverly, Mass.). […] CHO cells double transfected with human APP695 and M1 mAChR APPs bands were probed using anti-amyloid beta protein (1:1000, monoclonal 6E10 antibody, MAB1560, Chemicon) and peroxidase-linked rabbit anti mouse IgG (1:5,000; Jackson Immuno Research, PA). PC12 cells stably transfected with M1 mAChR APPs bands were probed using the anti-Alzheimer precursor protein A4 (1:4,000; monoclonal 22C11 antibody, Boehringer Mannheim) and the peroxidase-linked rabbit anti mouse IgG (1:20,000; Jackson Immuno Research, PA). Following extensive washout, the membranes were treated with Western Lightning Chemiluminescence Reagent Plus (PerkinElmer Life Sciences, MA) followed by exposure to SuperRX film (Fuji Medical X-ray film, Tokyo, Japan). Quantitative determination of the total APPs bands was performed by Scion Image program (NIH, Bethesda, USA). Samples of control and CCh were assayed in parallel and thus enabled compilation of data from separate experiments.

[4] = Protocol: On the day of dosing, careful clinical examinations were carried out and recorded periodically during the first 4 hours post-dosing and at the end of the respective working day. Thereafter, animals were inspected and clinical signs were recorded at least once daily throughout the entire 14-day observation period. Observations included changes in skin, fur, eyes, mucous membranes, occurrence of secretions and excretions (e.g. diarrhea) and autonomic activity (e.g. lacrimation, salivation, piloerection, pupil size, unusual respiratory pattern). Changes in gait, posture and response to handling, as well as the presence of bizarre behavior, tremors, convulsion, sleep and coma were also examined. […] In view of the sequential method applied in the current study and in order to standardize, as much as possible, all body weight and body weight gain values, the respective percentage change in body weight vs. the day of dosing was calculated for each animal and group. […] All animals were subjected to a full detailed necropsy and gross pathological examination following the scheduled termination. At necropsy, all animals were subjected to thorough examination, including the external surface of the body, all orifices, cranial, thoracic and abdominal cavities and their contents.

**Q.** Which results are given for C[C@@H]1SC2(CCN(C)CC2)CN1C(=O)CCc1c[nH]c2ccccc12 (single isomer, unassigned) [AF710B]?
**A.** release of αAPPs [1]: enhanced the release of αAPPs; retention latency ([2]; 10 μg/kg po, MK-801 80 μg/kg sc, MK-801+DDW 94.7±24.7): 336.3 ± 70 s and 336.3 ± 70.0 s; retention latency ([2]; 30 μg/kg po, MK-801 80 μg/kg sc): 370.0 ± 60 s and 370.0 ± 57.0 s; retention latency ([2]; 100 μg/kg po, MK-801 80 μg/kg sc): 325.6 ± 66.6 s; retention latency vs. MK-801 rats treated with DDW ([2]; 1, 3 and 5 or 300 μg/kg, po): not significantly different; retention latency ([2]; AF710B 10 μg/kg with NE-100 1 mg/kg, MK801 80 μg/kg): 184.8 ± 58.0 s; retention latency ([2]; AF710B 30 μg/kg with NE-100 1 mg/kg, MK801 80 μg/kg): 227.3 ± 38.5 s; cognitive enhancer dose range ([2]; po, MK801-induced passive avoidance impairment): 0.01 to 0.1 mg/kg; release of αAPPs ([3]; CHO cells, 0.1 nM to 1 μM): enhanced the release of αAPPs; maximal αAPPs secretion in comparison to untreated control cells ([3]; doubly-transfected CHO cells, AF710B at 0.01 μM, AF710 at 0.1 μM, AF710A at 1 μM): 225%; mortality ([4]; 1, 10 and 50 mg/kg, oral gavage, 14-day observation): No mortality; gross pathological findings at necropsy ([4]; rat, in vivo, po): No gross pathological findings
